≈ marks a conversion by molar mass, not a printed value.
Key:
[1] = Hygroscopicity by Dynamic Vapor Sorption Analysis (DVS); assay type: physicochemical; details: for Changes of the crystalline form associated with water uptake / Reversibility of water uptake / weight increase / Humidity absorption (in words) / Weight increase (hygroscopicity): DVS; for Humidity absorption (in words): 0 to 95% RH; for Weight increase (hygroscopicity): humidity 0 to 95% RH, maximum
Method: The hygroscopicity was determined by Dynamic Vapor Sorption Analysis (DVS). Approximately 200 mg of each solid state were weight on a sample plate and subjected to the apparatus. The humidity inside was varied in a range from 0 to 95% RH and the mass change (dm [%]) of the samples measured continuously.

[2] = Aqueous solubility in four aqueous buffers with distinct pH values; assay type: physicochemical; details: for solubility at 15 min / solubility at 1 h: thermodynamic from solid; for Solubility in aqueous solutions (in words): summary of the four buffers
Method: The solubility properties of the generated solid states were studied in four different aqueous buffers with distinct pH values. Approximately 250 mg of each sample was mixed with 2.5 ml solvent and stirred.

HIV = details: preclinical; lasted for several weeks after cessation of treatment; cited from earlier work
[3] = phase I trials; dose levels up to 200 mg; without clinically significant abnormal results; cited from earlier work
normal cellular splicing = details: cited from earlier work
HIV-1 replication = details: prevents export of viral RNA from nucleus to cytoplasm in infected cells; cited from earlier work
[4] = aqueous buffer, fassif, FaSSiF (SIF-powder), 15 min
[5] = aqueous buffer, fassif, FaSSiF (SIF-powder), 1 h
[6] = aqueous buffer, pH 2.2, simulated gastric fluid, 0.01N HCl pH ~2.2, 15 min
[7] = aqueous buffer, pH 2.2, simulated gastric fluid, 0.01N HCl pH ~2.2, 1 h
[8] = aqueous buffer, pH 4.5, aqueous buffer, 20 mM Na-acetate pH 4.5, 15 min
[9] = aqueous buffer, pH 4.5, aqueous buffer, 20 mM Na-acetate pH 4.5, 1 h
[10] = aqueous buffer, pH 6.8, aqueous buffer, 50 mM KH2PO4 pH 6.8, 15 min
[11] = aqueous buffer, pH 6.8, aqueous buffer, 50 mM KH2PO4 pH 6.8, 1 h

| Compound | Changes of the crystalline form associated with water uptake [1] | Reversibility of water uptake / weight increase [1] | Humidity absorption (in words) [1] | Weight increase (hygroscopicity) [1] | Relative weight change (dm) ([1]; RH 40% (start)) [%] | Relative weight change (dm) ([1]; RH 40 → 0% (first step to 0)) [%] | Relative weight change (dm) ([1]; RH 95 → 40% (desorption)) [%] | Relative weight change (dm) ([1]; RH → 0% (second step to 0)) [%] | Relative weight change (dm) ([1]; RH → 35% (final step)) [%] | Relative weight change (dm) ([1]; RH → 75%) [%] | Relative weight change (dm) ([1]; RH → 95%) [%] | solubility at 15 min [2, 4] [µg/mL] | solubility at 1 h [2, 5] [µg/mL] | solubility at 15 min [2, 6] [µg/mL] | solubility at 1 h [2, 7] [µg/mL] | solubility at 15 min [2, 8] [µg/mL] | solubility at 1 h [2, 9] [µg/mL] | solubility at 15 min [2, 10] [µg/mL] | solubility at 1 h [2, 11] [µg/mL] | Solubility ([2]; 0.01N HCl pH ~2.2, 15 min) [mg/mL] | other results |
| --- | --- | --- | --- | --- | --- | --- | --- | --- | --- | --- | --- | --- | --- | --- | --- | --- | --- | --- | --- | --- | --- |
| FC(F)(F)Oc1ccc(Nc2ccc3cccc(Cl)c3n2)cc1.O=S(=O)(O)c1ccccc1 [besylate, (8-chloro-quinolin-2-yl)-(4-trifluoromethoxyphenyl)-amine] | only minor | reversible | low hygroscopicity | up to 1.9% | 0 | −0.04 | 1.1 | −0.09 | 1.0 | 0.19 | 1.9 | 77 | 45 | 23 | 32 | 24 | 16 | 3 | 7 |  |  |
| FC(F)(F)Oc1ccc(Nc2ccc3cccc(Cl)c3n2)cc1.O=S(=O)(O)O [H2SO4, (8-chloro-quinolin-2-yl)-(4-trifluoromethoxyphenyl)-amine] |  | reversible | low hygroscopicity | ≤ 3.2% | 0 | −0.11 | 0.03 | −0.14 | −0.04 | 0.32 | 3.2 |  |  |  |  |  |  |  |  |  | solubility at 15 min ([2]; aqueous buffer, 20 mM Na-acetate pH 4.5, 15 min): 93 µg/mL; solubility at 1 h ([2]; aqueous buffer, 20 mM Na-acetate pH 4.5, 1 h): 139 µg/mL; solubility at 15 min ([2]; aqueous buffer, 50 mM KH2PO4 pH 6.8, 15 min): 35 µg/mL; solubility at 1 h ([2]; aqueous buffer, 50 mM KH2PO4 pH 6.8, 1 h): 114 µg/mL; solubility at 15 min ([2]; simulated gastric fluid, 0.01N HCl pH ~2.2, 15 min): 89 µg/mL; solubility at 1 h ([2]; simulated gastric fluid, 0.01N HCl pH ~2.2, 1 h): 152 µg/mL; Solubility in aqueous solutions (in words) [2]: first-rate solubility; solubility at 15 min ([2]; FaSSiF (SIF-powder), 15 min): 109 µg/mL; solubility at 1 h ([2]; FaSSiF (SIF-powder), 1 h): 157 µg/mL |
| Cl.FC(F)(F)Oc1ccc(Nc2ccc3cccc(Cl)c3n2)cc1 [HCl, (8-chloro-quinolin-2-yl)-(4-trifluoromethoxyphenyl)-amine] | significant changes | irreversible |  |  | 0 | −0.11 | 7.8 | 2.8 | 5.1 | 1.7 | 14.3 | 111 | 198 | 116 | 147 | 74 | 136 | 68 | 104 |  | Solubility in aqueous solutions (in words) [2]: first-rate solubility |

Further lines, with some results ahead:

| Changes of the crystalline form associated with water uptake [1] | Reversibility of water uptake / weight increase [1] | Humidity absorption (in words) [1] | Weight increase (hygroscopicity) [1] | Relative weight change (dm) ([1]; RH 40% (start)) [%] | Relative weight change (dm) ([1]; RH 40 → 0% (first step to 0)) [%] | Relative weight change (dm) ([1]; RH 95 → 40% (desorption)) [%] | Relative weight change (dm) ([1]; RH → 0% (second step to 0)) [%] | Relative weight change (dm) ([1]; RH → 35% (final step)) [%] | Relative weight change (dm) ([1]; RH → 75%) [%] | Relative weight change (dm) ([1]; RH → 95%) [%] | solubility at 15 min [2, 4] [µg/mL] | solubility at 1 h [2, 5] [µg/mL] | solubility at 15 min [2, 6] [µg/mL] | solubility at 1 h [2, 7] [µg/mL] | solubility at 15 min [2, 8] [µg/mL] | solubility at 1 h [2, 9] [µg/mL] | solubility at 15 min [2, 10] [µg/mL] | solubility at 1 h [2, 11] [µg/mL] | Solubility ([2]; 0.01N HCl pH ~2.2, 15 min) [mg/mL] | Compound | other results |
| --- | --- | --- | --- | --- | --- | --- | --- | --- | --- | --- | --- | --- | --- | --- | --- | --- | --- | --- | --- | --- | --- |
| significant changes | irreversible |  |  | 0 |  |  |  |  |  |  |  |  |  |  | 48 (≈ 142 µM) | 50 (≈ 148 µM) | 18 (≈ 53.1 µM) | 23 (≈ 67.9 µM) | 0.075 (≈ 221 µM) | FC(F)(F)Oc1ccc(Nc2ccc3cccc(Cl)c3n2)cc1 [hemi-edisylate, (8-chloro-quinolin-2-yl)-(4-trifluoromethoxyphenyl)-amine] | Relative weight change (dm) ([1]; RH 40 → 0% (first step to 0), listed as Hemiedisylate salt): −0.65%; Relative weight change (dm) ([1]; RH 95 → 40% (desorption), listed as Hemiedisylate salt): 3.5%; Relative weight change (dm) ([1]; RH → 0% (second step to 0), listed as Hemiedisylate salt): 0.4%; Relative weight change (dm) ([1]; RH → 35% (final step), listed as Hemiedisylate salt): 2.9%; Relative weight change (dm) ([1]; RH → 75%, listed as Hemiedisylate salt): 0.74%; Relative weight change (dm) ([1]; RH → 95%, listed as Hemiedisylate salt): 36.2%; Solubility ([2]; 0.01N HCl pH ~2.2, 1 h): 0.065 mg/mL (≈ 192 µM) |
|  |  | absorbs more or less not any humidity |  | 0 | −0.05 | −0.03 | −0.09 | −0.05 | 0.05 | 0.24 | 30 | 13 | 6 | 10 |  | 3 |  |  |  | Cc1ccc(S(=O)(=O)O)cc1.FC(F)(F)Oc1ccc(Nc2ccc3cccc(Cl)c3n2)cc1 [tosylate, (8-chloro-quinolin-2-yl)-(4-trifluoromethoxyphenyl)-amine] |  |
|  |  | absorbs more or less not any humidity |  | 0 | 0 | 0.03 | 0.02 | 0.02 | 0.02 | 0.15 | 64 (≈ 189 µM) | 61 (≈ 180 µM) |  |  |  |  |  |  | 0.003 (≈ 8.86 µM) | FC(F)(F)Oc1ccc(Nc2ccc3cccc(Cl)c3n2)cc1 [free base, (8-chloro-quinolin-2-yl)-(4-trifluoromethoxy-phenyl)-amine] | Reduction of viral load (HIV): sustained reduction of viral load; Tolerability [3]: well tolerated; Selectivity / effect on normal cellular splicing (normal cellular splicing): doesn't affect normal cellular splicing; HIV replication (HIV-1 replication): inhibits HIV replication; Solubility ([2]; 0.01N HCl pH ~2.2, 1 h): 0.004 mg/mL (≈ 11.8 µM); Solubility in aqueous solutions with different pH-values ([2]; compound from reworked WO 2010/143169 procedure, recrystallized, pH values simulating physiological conditions): virtual insolubility |

From patent US10745357B2, “Process for preparing quinolin-2-yl-phenylamine derivatives and their salts” (priority 2016, dated 2020)
